# Structures can show the parent of a compound that is named as a salt. Where two headings read alike, the source gives them in different places.
# Molecular target: T1, β-catenin/BCL9 PPI (Homo sapiens, UniProt P35222)
# T1 construct: Wild-type full-length β-catenin were cloned into a pET-28b vector carrying a C-terminal 6×histidine; made in house; host or cells: Escherichia coli BL21 DE3 (β-catenin); BCL9 peptide chemically synthesized
# T1 sequence (P35222 1-781): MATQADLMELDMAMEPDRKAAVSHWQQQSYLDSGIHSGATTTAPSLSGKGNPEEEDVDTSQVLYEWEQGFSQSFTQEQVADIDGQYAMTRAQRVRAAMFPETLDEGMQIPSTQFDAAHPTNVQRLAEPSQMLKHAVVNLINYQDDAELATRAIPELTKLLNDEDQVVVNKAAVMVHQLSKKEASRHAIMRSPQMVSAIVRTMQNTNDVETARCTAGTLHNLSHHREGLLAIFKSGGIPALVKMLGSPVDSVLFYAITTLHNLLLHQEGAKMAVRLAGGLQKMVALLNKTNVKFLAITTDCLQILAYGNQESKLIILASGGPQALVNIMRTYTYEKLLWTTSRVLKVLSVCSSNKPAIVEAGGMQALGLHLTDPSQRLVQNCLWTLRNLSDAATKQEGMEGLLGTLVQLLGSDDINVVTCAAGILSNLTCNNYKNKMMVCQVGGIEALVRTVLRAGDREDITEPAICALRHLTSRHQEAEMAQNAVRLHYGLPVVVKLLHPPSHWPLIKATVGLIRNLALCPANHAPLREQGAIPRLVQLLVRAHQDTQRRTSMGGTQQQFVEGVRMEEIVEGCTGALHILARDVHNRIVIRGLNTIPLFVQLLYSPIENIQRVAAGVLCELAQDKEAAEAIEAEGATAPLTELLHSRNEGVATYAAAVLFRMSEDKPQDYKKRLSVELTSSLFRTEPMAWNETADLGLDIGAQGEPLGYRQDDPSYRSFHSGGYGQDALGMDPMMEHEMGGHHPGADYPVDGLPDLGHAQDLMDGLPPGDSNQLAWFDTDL
# Assay: AlphaScreen competitive inhibition assay of the β-catenin/BCL9 PPI
# Assay type: binding
# Conditions: mean ± SD, triplicate, Ki derived from IC50 (Nikolovska-Coleska method)
# Procedure: AlphaScreen competitive inhibition assays. For the competitive inhibition assays of the β-catenin/BCL9 PPI, the negative control (equivalent to 0% inhibition) refers to 5.0 nM of biotinylated BCL9, 40 nM of His6-tagged β-catenin, and 10 μg/mL of donor and acceptor beads in a final volume of 25 μL assay buffer, but no tested inhibitor present. The positive control (equivalent to 100% inhibition) refers to 5.0 nM of biotinylated BCL9 and 10 μg/mL of donor and acceptor beads in a final volume of 25 μL assay buffer.
# For the β-catenin/BCL9 assay, 5 nM of biotinylated BCL9 and 40 nM of His6-tagged β-catenin were incubated in assay buffer at 4° C. for 30 min. Different concentrations of the tested inhibitor were added and incubated in 20 μL assay buffer at 4° C. for another 1 h. All of the above assay plates were covered and gently mixed on an orbital shaker. The donor and acceptor beads were then added to the plates to a final concentration of 10 μg/mL in 25 μL assay buffer. The mixture was incubated for 1 h at 4° C. before detection. The IC50 value was determined by nonlinear least-square analysis of GraphPad Prism 5.0. The Ki values were derived from the IC50 values using a method reported by Nikolovska-Coleska et al (Nikolovska-Coleska, Z.; Wang, R.; Fang, X.; Pan, H.; Tomita, Y.; Li, P.; Roller, P. P.; Krajewski, K.; Saito, N. G.; Stuckey, J. A.; Wang, S. Development and optimization of a binding assay for the XIAP BIR3 domain using fluorescence polarization. Anal. Biochem. 2004, 332, 261-273). The assays were conducted under the conditions required by Nikolovska-Coleska et al.'s equation for determining the Ki values. All of the experiments were performed in triplicate. The results were expressed as mean±standard deviation.
# [1] = Example 1 compounds, experiment 3, read-out: Ki (μM ± SD) experiment 3
# [2] = Example 2 compounds, experiment 1, read-out: Ki (μM ± SD) experiment 1
# [3] = Example 2 compounds, experiment 2, read-out: Ki (μM ± SD) experiment 2
# [4] = Example 1 compounds, experiment 4, read-out: Ki (μM ± SD) experiment 4
Ki [1],Ki [2],Ki [3],Ki [4],SMILES
> 1000 µM,,,,"CNCc1cn(-c2cc(F)cc(C(=O)N3CCN(C(=O)c4ccc(O[C@H]5CCNC5)c(C5CCCCC5)c4)CC3)c2)nn1 [Compound 32, (S)-(4-(3-Cyclohexyl-4-(pyrrolidin-3-yloxy)benzoyl)piperazin-1-yl) (3-fluoro-5-(4-((methylamino)methyl)-1H-1,2,3-triazol-1-yl)phenyl) methanone dihydrochloride]"
,12.3 ± 1.74 µM,25.4 ± 2.43 µM,,"O=C(c1ccc(O[C@H]2CCNC2)c(C2CCCCC2)c1)N1CCC(Oc2cc(F)cc(N3CCNCC3)c2)CC1 [Compound 1, (S)-(3-cyclohexyl-4-(pyrrolidin-3-yloxy)phenyl) (4-(3-fluoro-5-(piperazin-1-yl)phenoxy)piperidin-1-yl) methanone dihydrochloride]"
190 ± 18 µM,,,170 ± 29 µM,"CCN(C)C(=O)C1CN(C(=O)c2cc(F)cc(NC(C)=O)c2)CCN1C(=O)c1ccc(O[C@H]2CCNC2)c(C2CCCCC2)c1 (stereo partly drawn) [Compound 20, 4-(3-Acetamido-5-fluorobenzoyl)-1-(3-cyclohexyl-4-(((S)-pyrrolidin-3-yl)oxy)benzoyl)-N-ethyl-N-methylpiperazine-2-carboxamide trifluoroacetate]"
390 ± 78 µM,,,> 1000 µM,"CC(=O)Nc1cc(F)cc(C(=O)N2CCN(C(=O)c3ccc(O[C@H]4CCNC4)c(C4CCCCC4)c3)C(C(=O)NC3CCCCC3)C2)c1 (stereo partly drawn) [Compound 25, 4-(3-Acetamido-5-fluorobenzoyl)-N-cyclohexyl-1-(3-cyclohexyl-4-(((S)-pyrrolidin-3-yl)oxy)benzoyl) piperazine-2-carboxamide trifluoroacetate]"
,132 ± 9.82 µM,124 ± 13.4 µM,,"NCc1cn(Cc2cc(F)cc(OC3CCN(C(=O)c4ccc(O[C@H]5CCNC5)c(C5CCCCC5)c4)CC3)c2)nn1 [Compound 3, (S)-(4-(3-((4-(aminomethyl)-1H-1,2,3-triazol-1-yl)methyl)-5-fluorophenoxy)piperidin-1-yl) (3-cyclohexyl-4-(pyrrolidin-3-yloxy)phenyl) methanone dihydrochloride]"
,56.9 ± 8.34 µM,24.2 ± 2.7 µM,,"NCCCC(=O)Nc1cc(F)cc(OC2CCN(C(=O)c3ccc(OC4CCNC4)c(C4CCCCC4)c3)CC2)c1 (stereo not shown) [Compound 6, 4-amino-N-(3-((1-(3-cyclohexyl-4-(pyrrolidin-3-yloxy)benzoyl)piperidin-4-yl)oxy)-5-fluorophenyl)butanamide dihydrochloride]"
,162 ± 19.6 µM,162 ± 17.4 µM,,"CC(C)(CN)C(=O)NCc1cc(F)cc(OC2CCN(C(=O)c3ccc(O[C@H]4CCNC4)c(C4CCCCC4)c3)CC2)c1 [Compound 8, (S)-3-amino-N-(3-((1-(3-cyclohexyl-4-(pyrrolidin-3-yloxy)benzoyl)piperidin-4-yl)oxy)-5-fluorobenzyl)-2,2-dimethylpropanamide dihydrochloride]"
> 1000 µM,,,> 1000 µM,"CC(=O)Nc1cc(F)cc(C(=O)N2CCN(C(=O)c3ccc(O[C@H]4CCNC4)c(C4CCCCC4)c3)C(C(=O)N(C)C(C)C)C2)c1 (stereo partly drawn) [Compound 22, 4-(3-Acetamido-5-fluorobenzoyl)-1-(3-cyclohexyl-4-(((S)-pyrrolidin-3-yl)oxy)benzoyl)-N-isopropyl-N-methylpiperazine-2-carboxamide trifluoroacetate]"
> 1000 µM,,,> 1000 µM,"CC(=O)Nc1cc(F)cc(C(=O)N2CCN(C(=O)c3ccc(O[C@H]4CCNC4)c(C4CCCCC4)c3)C(C(=O)NCC(C)C)C2)c1 (stereo partly drawn) [Compound 23, 4-(3-Acetamido-5-fluorobenzoyl)-1-(3-cyclohexyl-4-(((S)-pyrrolidin-3-yl)oxy)benzoyl)-N-isobutylpiperazine-2-carboxamide trifluoroacetate]"
560 ± 120 µM,,,740 ± 150 µM,"CC(=O)Nc1cc(F)cc(C(=O)N2CCN(C(=O)c3ccc(O[C@H]4CCNC4)c(C4CCCCC4)c3)C(C(=O)N(C)Cc3ccccc3)C2)c1 (stereo partly drawn) [Compound 29, 4-(3-Acetamido-5-fluorobenzoyl)-N-benzyl-1-(3-cyclohexyl-4-(((S)-pyrrolidin-3-yl)oxy)benzoyl)-N-methylpiperazine-2-carboxamide trifluoroacetate]"

# Source: patent US12600710B2, “Beta-catenin and b-cell lymphoma 9 (BCL9) inhibitors” (H. LEE MOFFITT CANCER CENTER AND RESEARCH INSTITUTE, INC., priority 2018, dated 2026)
